From patent US5349127A, “Expression of herbicide metabolizing cytochromes P450” (priority 1992, dated 1994)

Legend:
S. griseolus ATCC11796 = test: Metabolism of 10015 analogs to 10014 (Example 17); type: in vitro ADME, Streptomyces griseolus
Method: Cultures of S. griseolus ATCC11796 were cultivated in sporulation-broth (50ml) at 30° C. with shaking for 17 hours. Each culture was then resuspended in 25 ml fresh sporulation broth, 3.0 mg sulfonylurea was added, and the culture reincubated for 4 days. Aliquots of the medium were then analyzed by HPLC. Formation of 10014 was measured based on similarity of retention time and UV spectrum of the test metabolite to that formed by metabolism of 10015.

[1] = tested on: S. lividans pCAO200SU1-FeS-B#9; test: Sulfonylurea metabolism by washed cell suspension (Examples 6-9); type: in vitro ADME, Streptomyces lividans
Method: (§1) Herbicides and their metabolites are measured by HPLC as described by Romesser et al., BBRC 140: 650-659 (1986), herein incorporated by reference, except that 0.1% H3 PO4 is used in both solvents. Chromatographic identity and quantitation of the herbicides and their resulting metabolites is determined by comparing them chromatographically with authentic standard compounds. Identity of the resulting metabolites is also confirmed by UV spectroscopy.
A 100 ml culture of S. griseolus ATCC 11796 in sporulation broth and a 50 ml culture of S. lividans transformed with pCAO400 in YEME broth were prepared and incubated for 24 hours as described. At that time, the S. griseolus culture was split into two 50 ml aliquots into two separate flasks and 25 ml of fresh sporulation broth was added to each and 9 mg of […] was added to one of these cultures to induce cytochrome P450SU1 expression. Fresh YEME broth (25 ml) was added to the S. lividans culture. After an additional 6 hours growth at 30° C., the cells in each culture were harvested as described above, washed twice with MOPS (50 mM, pH 7.2) and recentrifuged. The cell pellets were resuspended in four cell volumes of MOPS (50 mM, pH 7.2) containing 0.2% glucose and about 100 μg/ml of 10004. These cell suspensions were incubated at 30° C. with shaking and aliqouts were taken at 2 and 5.5 hours. The supernatant of each aliquot was analyzed by HPLC and the concentrations of the sulfonylurea compound 10004 and its metabolite 10005 were determined.
S. lividans transformed respectively with pCAO200SU1-FeS-B#9, pCAO200SU#112and pCAO200 were cultured for 36 hours in 400 ml of YEME broth at 30° C. S. griseolus ATCC 11796 was similarly cultured in 400 ml of sporulation broth. Six hours before harvesting the cells, 150 ml of fresh YEME broth was added to the S. lividans cells, and the S. griseolus cells were split into two 200 ml cultures with 100 ml of fresh sporulation broth added to each. 10001 (36 mg) was added to one of the two S. griseolus cultures to induce cytochrome P450SU1. […]

[2] = tested on: S. lividans pCAO200SU1#12; test: as above; type: in vitro ADME, Streptomyces lividans
Method: as §1, with “spectroscopy. […]” for “spectroscopy.”
(§2) S. lividans transformed respectively with pCAO200SU1-FeS-B#9, pCAO200SU#112and pCAO200 were cultured for 36 hours in 400 ml of YEME broth at 30° C. S. griseolus ATCC 11796 was similarly cultured in 400 ml of sporulation broth. Six hours before harvesting the cells, 150 ml of fresh YEME broth was added to the S. lividans cells, and the S. griseolus cells were split into two 200 ml cultures with 100 ml of fresh sporulation broth added to each. 10001 (36 mg) was added to one of the two S. griseolus cultures to induce cytochrome P450SU1. The cells were prepared as described above in Example 5 and the concentrations of the sulfonylurea compound 10006 and its metabolites 10007, 10008 or 10009 were determined.

S. lividans pCAO200 [3] = test: as above; type: in vitro ADME, Streptomyces lividans; details: substrate 10010
[4] = tested on: S. lividans pCAO200SU2-FeS-A#11; test: Sulfonylurea metabolism by washed cell suspension (Examples 11-12); type: in vitro ADME, Streptomyces lividans; details: substrate 10010
[5] = tested on: S. lividans pCAO200SU1-FeS-B#9; test: Percent conversion of herbicides by cultures (Example 16); type: in vitro ADME, Streptomyces lividans; details: for Percent Conversion: 3.0 mg herbicide in 25 ml broth, 24 hours
Method: (§3) Separate cultures (50 ml) inoculated with S. lividans C37, S. lividans transformed with pCAO200SU1-FeS-B#9, S. griseolus ATCC11796, S. griseolus PH2003 transformed with pIJ425, or S. ariseolus PH2003 transformed with pCS325 were cultured in sporulation broth for 18 hours at 30° C. with shaking. Each culture was then resuspended in 25 ml fresh sporulation broth and 3.0 mg herbicide added. In the case of cultures of S. griseolus ATCC11796, a second culture containing herbicide and 3.0 mg 10001 was also prepared. Each culture was reincubated for 24 hours, then an aliquot of the medium was withdrawn and analyzed by HPLC. The percent conversion of herbicide was determined.

[6] = tested on: S. griseolus PH2003 pCS325; test: as above; type: in vitro ADME, Streptomyces griseolus; details: for Percent Conversion: 3.0 mg herbicide in 25 ml broth, 24 hours; for metabolism by bacteria containing constitutively expressed P450SU2: summary of Table 13
Method: as §3

[7] = tested on: S. griseolus PH2003 pIJ425; test: as above; type: in vitro ADME, Streptomyces griseolus; details: 3.0 mg herbicide in 25 ml broth; 24 hours
Method: as §3

[8] = tested on: S. lividans pCAO200SU1-FeS-B#9; test: Percent conversion of non-sulfonylurea herbicides (Example 29); type: in vitro ADME, Streptomyces lividans; details: for Percent Conversion: 3.0 mg herbicide in 25 ml broth, 18 hours; for metabolism by bacteria containing constitutively expressed P450SU1: summary of Table 29
Method: This experiment was performed as in Example 17 with the following changes. Separate cultures (50 ml) inoculated with S. lividans C37, S. lividans transformed with pCAO200SU1-FeS-B#9, or S. griseolus ATCC11796 were cultured in sporulation broth for 18 hours at 30° C. with shaking. Each culture was then resuspended in 25 ml fresh sporulation broth and 3.0 mg herbicide added. Each culture was reincubated for 18 hours, then an aliquot of the medium was withdrawn and analyzed by HPLC. The percent conversion of herbicide was determined.

S. lividans C37 = test: Percent conversion of herbicides by cultures (Example 16); type: in vitro ADME, Streptomyces lividans; details: 3.0 mg herbicide in 25 ml broth; 24 hours
Method: as §3

S. lividans pCAO200 [9] = test: Sulfonylurea metabolism by washed cell suspension (Examples 6-9); type: in vitro ADME, Streptomyces lividans; details: substrate 10006
Method: as §1, with “spectroscopy. […]” for “spectroscopy.”
as §2

SMILES: C=CCN1Cc2cccc(S(=O)(=O)NC(=O)Nc3nc(OC)cc(OC)n3)c2S1(=O)=O [compound 10028, N-[(4,6-dimethoxypyrimidin-2-yl)aminocarbonyl]-2,3-dihydro-2-(2-propenyl)-1,2-benzisothiazole-7-sulfonamide-1,1-dioxide]
- metabolism by P450SU1 to phytotoxic 10014 (S. griseolus ATCC11796): metabolized

SMILES: COC(=O)c1ccccc1S(=O)(=O)NC(=O)Nc1nc(C)cc(CO)n1 [compound 10011, N-[(4-hydroxymethyl-6-methyl-pyrimidin-2-yl)aminocarbonyl]-2-methoxycarbonylbenzenesulfonamide]
- concentration in supernatant ([1]; substrate 10010, 2 h): 34 µM
- concentration in supernatant ([1]; substrate 10010, 4 h): 37 µM
- concentration in supernatant ([1]; substrate 10010, 6 h): 27 µM
- concentration in supernatant ([2]; substrate 10010, 2 h): 4 µM
- concentration in supernatant ([2]; substrate 10010, 4 h): 7 µM
- concentration in supernatant ([2]; substrate 10010, 6 h): 11 µM
- concentration in supernatant (S. lividans pCAO200 [3]; 2 h): 1 µM
- concentration in supernatant (S. lividans pCAO200 [3]; 4 h): 2 µM
- concentration in supernatant (S. lividans pCAO200 [3]; 6 h): 3 µM
- concentration in supernatant ([4]; 2 h): 1 µM
- concentration in supernatant ([4]; 4 h): 5 µM
- concentration in supernatant ([4]; 6 h): 14 µM

SMILES: COc1cc(OC)nc(NC(=O)NS(=O)(=O)c2cccc3c2S(=O)(=O)N(C[Si](C)(C)C)C3)n1 [compound 10032, N-[(4,6-dimethoxypyrimidin-2-yl)aminocarbonyl]-2,3-dihydro-2-(trimethylsilylmethyl)-1,2-benzisothiazole-7-sulfonamide-1,1-dioxide]
- % Conversion to 10014 (S. griseolus ATCC11796; 3.0 mg sulfonylurea in 25 ml broth, 4 days): 0%

SMILES: C[n+]1cccnc1[O-] [compound 10022, 1-methyl-2(1H)-pyrimidinone]
- Percent Conversion [5]: 42%
- Percent Conversion [6]: 96%
- metabolism by bacteria containing constitutively expressed P450SU2 [6]: metabolized
- Percent Conversion [7]: 0%

SMILES: Cc1cc(C)nc(S(=O)(=O)Nc2c(Cl)cccc2Cl)n1 [compound 10036, N-(2,6-dichlorophenyl)-4,6-dimethyl-2-pyrimidinesulfonamide]
- Percent Conversion [8]: 100%
- metabolism by bacteria containing constitutively expressed P450SU1 [8]: metabolized

SMILES: CCN1Cc2cccc(S(=O)(=O)NC(=O)Nc3nc(OC)cc(OC)n3)c2S1(=O)=O [compound 10024, N-[(4,6-dimethoxypyrimidin-2-yl)aminocarbonyl]-2-ethyl-2,3-dihydro-1,2-benzisothiazole-7-sulfonamide-1,1-dioxide]
- metabolism by P450SU1 to phytotoxic 10014 (S. griseolus ATCC11796): metabolized

SMILES: CCCN1Cc2cccc(S(=O)(=O)NC(=O)Nc3nc(OC)cc(OC)n3)c2S1(=O)=O [compound 10027, N-[(4,6-dimethoxypyrimidin-2-yl)aminocarbonyl]-2,3-dihydro-2-propyl-1,2-benzisothiazole-7-sulfonamide-1,1-dioxide]
- metabolism by P450SU1 to phytotoxic 10014 (S. griseolus ATCC11796): metabolized

SMILES: CSc1nnc(C(C)(C)C)c(=O)n1N [compound 10018, 4-amino-6-tert-butyl-3-(methylthio)-AS-triazin-5(4H)-one]
- Percent Conversion (S. lividans C37): 0%
- Percent Conversion [5]: 56%
- metabolism by bacteria containing constitutively expressed P450SU1 ([5]; summary of Table 13): metabolized
- Percent Conversion [6]: 72%
- metabolism by bacteria containing constitutively expressed P450SU2 [6]: metabolized
- Percent Conversion [7]: 10%

SMILES: COc1cc(OC)nc(NC(=O)NS(=O)(=O)c2cccc3c2S(=O)(=O)N(Cc2ccccc2)C3)n1 [compound 10025, N-[(4,6-dimethoxypyrimidin-2-yl)aminocarbonyl]2,3-dihydro-2-(phenylmethyl)-1,2-benzisothiazole-7-sulfonamide-1,1-dioxide]
- metabolism by P450SU1 to phytotoxic 10014 (S. griseolus ATCC11796): metabolized

SMILES: COC(=O)C1Cc2c(c(Cl)cc(F)c2N2C(=O)C3=C(CCCC3)C2=O)O1 (centres unmarked) [compound 10020, 7-chloro-5-fluoro-4-(2,3,4,5,6,7-hexahydro-1,3-dioxo-1H-isoindol-2-yl)-2,3-dihydro-2-benzofurancarboxylic acid, methyl ester]
- Percent Conversion [5]: 19%
- Percent Conversion [6]: 89%
- metabolism by bacteria containing constitutively expressed P450SU2 [6]: metabolized
- Percent Conversion [7]: 7%

SMILES: CCNc1nc(Cl)nc(NC(C)(C)C#N)n1 [compound 10021, 2-[4-chloro-6-(ethylamino-1,3,5-triazin-2-yl)amino]-2-methylpropanenitrile]
- Percent Conversion (S. lividans C37): 0%
- Percent Conversion [5]: 23%
- Percent Conversion [6]: 93%
- metabolism by bacteria containing constitutively expressed P450SU2 [6]: metabolized
- Percent Conversion [7]: 7%

SMILES: Cc1cc(C)n2nc(S(=O)(=O)Nc3c(C)cccc3Cl)nc2n1 [compound 10033, N-(2-chloro-6-methylphenyl)-5,7-dimethyl-1,2,4-triazolo-1,5A-pyrimidine-2-sulfonamide]
- Percent Conversion [8]: 88%
- metabolism by bacteria containing constitutively expressed P450SU1 [8]: metabolized

SMILES: COc1cc(OC)nc(NC(=O)NS(=O)(=O)c2cccc3c2S(=O)(=O)N(CCF)C3)n1 [compound 10026, N-[(4,6-dimethoxypyrimidin-2-yl)aminocarbonyl]-2-(2-fluoroethy1)-2,3-dihydro-1,2-benzisothiazole-7-sul fonamide-1,1-dioxide]
- metabolism by P450SU1 to phytotoxic 10014 (S. griseolus ATCC11796): metabolized

SMILES: COc1nc(C)nc(=NC(=O)NS(=O)(=O)c2ccccc2C(=O)O)[nH]1 [compound 10008, N-[(4-methoxy-6-methyl-1,3,5-triazinyl)aminocarbonyl]-2-carboxybenzenesulfonamide]
- concentration in supernatant ([1]; substrate 10006, 2 h): 18 µM
- concentration in supernatant ([1]; substrate 10006, 4 h): 38 µM
- concentration in supernatant ([1]; substrate 10006, 6 h): 55 µM
- concentration in supernatant ([2]; substrate 10006, 2 h): 1 µM
- concentration in supernatant ([2]; substrate 10006, 4 h): 1 µM
- concentration in supernatant ([2]; substrate 10006, 6 h): 1 µM
- concentration in supernatant (S. lividans pCAO200 [9]; 2 h): 0 nM
- concentration in supernatant (S. lividans pCAO200 [9]; 4 h): 0 nM
- concentration in supernatant (S. lividans pCAO200 [9]; 6 h): 0 nM
